From patent publication US7001770B1, “Calpain inhibitors and their applications” (priority 1998, dated 2006)
Square brackets hold non-standard residues; d marks the D form. Peptide text beside a SMILES is read from it. Nle = CCCC[C@H](N)C(=O)O

Experiments:
[1] = test system: p53 protein levels in Hep3B cells (p53 null); test: Western blot of p53 protein levels; format: cell-based; settings: rAd-p53 in the presence of 10 μM calpain inhibitor 1 versus rAd53 alone; 17 hours
Description: To determine if increases in exogeneous p53 levels occurred in response to CI-1, the p53 null cell line Hep3B was infected with 1×10^9 particle/ml and assayed for p53 protein levels by western blots 17 hours post-infection. No p53 protein was detected in untreated Hep3B. p53 protein was detected in cells infected with rAd53 alone, and increased greater then 10 fold when infected with rAd-p53 in the presence of 10 μM calpain inhibitor 1. […] The enhancement of p53 stability by CI-1 may not, therefore, be the sole mechanism by which enhanced cell death has been achieved. […] Thus, a new mechanism of action is involved other than p53 stability in the increased induction of apoptosis by the combination of CI-1 and p53.
At 17 hours post treatment, cells were lysed in protein lysis buffer (50 mM tris, 250 mM NaCl, 50 mM NaF, 5 mM EDTA and 0.1% NP-40 with 1 mM PMSF). Cell lysates were subjected to electrophoresis. 10 μg of protein was added per lane on a 12% polyacrylamide gel and transfered onto nitrocellulose membranes. The membranes were subjected to western blot analysis using antibodies specific for p53 or p21 (Calbiochem, p53 antibody Ab-6, and p21 antibody Ab-7). […] Blots were developed using enhanced chemiluminescence detection system (Amersham) and quantitated using NIH imaging analysis.

HLF cells = test: Apoptosis by annexin V-FITC staining, flow cytometry; format: cell-based; settings: for Percent Annexin V Positive Staining: 26 hours post treatment
Description: P53 was administered to the cells by the use of the replication defective adenoviral vector ACN53 described in Wills, et al., supra. The effect of varying concentrations of rAd-p53 (from […] to 2×10^9 rAd-p53 particles/ml of solution) was investigated in combination with CI-1 in a range of 5–20 μm. The effects of individual and combination treatment was determined in the in DLD1, RKO, HLF and SK-Hep1 cells was investigated in substantial accordance with the teaching of Examples 2 and 3 herein. The percentage of apoptotic cells was determined at 17 hours post treatment (with the exception of U87 cells (24 hours) and HeLa cells (68 hours)) with annexin V positive staining. The results are presented in graphical format in FIG. 3 of the attached drawings. In brief, the results were as follows:
To quantitate the increased efficacy of rAd-p53 induced cell killing in tumor cell lines in response to CI-1 treatment, HLF cells were infected with increasing concentrations of rAd-p53 with or without 10 μM CI-1, and assayed for percentage apoptotic cells by annexin V-FITC staining 42 hours post-treatment in substantial accordance with the teaching of Example 3 herein. […] No increase in annexin V-FITC positive cells was detected at 1×10^5 particles/ml rAd-p53 with or without 10 μM CI-1. At 1×10^6 particles/ml rAd-p53, the percentage apoptotic cells without CI-1 was 14%, while 40% of annexin V positive cells was detected when cell were treated with 10 μM CI-1. At a concentration of 1×10^7 ACN53 particles/ml, 17% annexin V positive without and 63% with 10 μM CI-1 was detected. At 1×10^8 particles/ml, 52% were annexin V positive without and 70% positive with inhibitor treatment. At a dose of 1×10^9 particles of rAd-p53, however, the percentage annexin V positive was about the same for both 77% without and 74% with 10 μM CI-1. […] concentration of rAd-p53 was sufficient to induce approximately 50% cell death, while only a 1×10^7 particle/ml concentration rAd-p53 was needed to induce approximately the same percentage of cell death when 10 μM CI-1 as added.
The effect of an inhibitor of μ-calpains, CI-1 (N-acetyl-leu-leu-norleucinal), was investigated for its ability to enhance p53 mediated apoptosis in tumor cell lines having p53+ and p53− status listed in Table1. Each cell line was treated with 5–50 μM CI-1 for 17–26 hours. To detect a G0/G1 block, bromodeoxyuridine (BrdU) incorporation followed by flow cytometric analysis was done 17 hours post-treatment as described in Example 4 herein. […] The results of these experiments are presented in FIGS. 1 and 2 of the attached drawings. In FIG. 1, each point on the graph represents percentage annexin V positive after background percentage (DMF alone) was subtracted.
An aliquot containing approximately 1×10^6 cells of each type was placed in a T-225 flask. The effect of varying concentrations of rAd-p53 (from 1×10^7 to 2×10^9ACN53 particles/ml of solution) was investigated in combination with CI-1 in a range of 5–20 μM. In each instance, the cell line was infected with 1×10^7–1×10^9 particles/ml of cell culture with the ACN53 using the empty cassette virus (ZZCB) as a control. In each instance, the cells were exposed to the virus for a period of one hour. At the end of this time, the virus was washed off the from the cells and fresh media containing an appropriate concentration of CI-1 was added.
HLF cells were infected at increasing log concentrations of rAd-p53 ranging from 1×10^5 to 1×10^9 for one hour at which time virus was washed off and replaced with fresh media (viral infection with no treatment) or with 10 μM calpain inhibitor 1. Cells were assayed for apoptosis by annexin V-FITC staining at 24 and 42 hours post-infection.
CI-1 was obtained from Boehringer-Mannheim Biochemicals (Indianapolis, Ind.). The CI-1 containing media was prepared as follows. CI-1 was diluted in dimethylformamide (DMF) to a concentration of 33.3 μM/μl. […]

[2] = test system: beta-galactosidase transgene; test: In vivo transgene RNA in liver by RT-PCR; design: species or system C57BL/6 mice; settings: CI-1 60 mg/kg ip, three administrations; 9×10^9 particle/ml rAd beta-galactosidase tail vein; seen in one third of the mice
Description: […] C57BL/6 mice were treated with 60 mg/kg injected intraperitoneally on day minus one. Three control mice were injected with CI-1 solvent only (PBS/0.02% DMSO). On day zero, all mice were tail vein injected with 9×10^9 particle/ml with a recombinant adenovirus encoding the beta-galactosidase transgene. CI-1 or solvent was administed one additional time on day one for three total intraperitoneal administrations of CI-1. Mice were sacrificed three days and nine days later (four-and ten days post-infection respectively), and livers were harvested for quantitative PCR and RT-PCR to detect viral DNA and viral transcript (b-galactosidase) respectively. One third of the miceexpressed a high level of transgene RNA in response to calpain inhibitor 1 treatment, as compared with virus alone.

CCCC[C@@H](C=O)NC(=O)[C@H](CC(C)C)NC(=O)[C@H](CC(C)C)NC(C)=O [CI-1, N-acetyl-leu-leu-norleucinal] (Ac-Leu-Leu-[Nle]-aldehyde)
increase in p53 protein [1]: > 10 fold | Percentage of Cells Undergoing Apoptosis (HLF cells; 10 μM CI-1, 17 hours post treatment): 7% | annexin V staining (HLF cells; 10 μM CI-1 alone, 42 hours post-treatment): 3% | Percent Annexin V Positive Staining (HLF cells; CI-1 10 μM): 27% | Percent Annexin V Positive Staining (HLF cells; CI-1 20 μM): 27% | Percent Annexin V Positive Staining (HLF cells; CI-1 30 μM): 33% | Percent Annexin V Positive Staining (HLF cells; CI-1 40 μM): 20% | Percent Annexin V Positive Staining (HLF cells; CI-1 50 μM): 21% | decrease in the particles/ml of rAd-p53 needed to induce approximately 50% cell death (HLF cells; treatment with 10 μM CI-1 at 42 hours): approximately two log decrease | level of transgene RNA in liver compared with virus alone [2]: Approximately a six fold higher level
